Laboratory results published in paper PMC5398486, “Cheminformatics-aided discovery of small-molecule Protein-Protein Interaction (PPI) dual inhibitors of Tumor Necrosis Factor (TNF) and Receptor Activator of NF-κB Ligand (RANKL)” (PLoS Computational Biology, 2017).
In brackets after ≈: the same amount, converted by molar mass. Where two headings read alike, the source gives them in different places. Marks after values point to notes of the source that are not given here.

T1: RANKL (Homo sapiens, UniProt O14788)
T1 sequence (O14788 143-317): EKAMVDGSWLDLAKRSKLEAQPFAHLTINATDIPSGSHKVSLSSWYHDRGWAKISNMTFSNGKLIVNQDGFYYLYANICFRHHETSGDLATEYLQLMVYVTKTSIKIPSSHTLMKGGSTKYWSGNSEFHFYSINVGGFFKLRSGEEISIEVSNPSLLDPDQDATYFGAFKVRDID

B1: recombinant human RANKL (Receptor activator of nuclear factor kappa-B ligand) (ligand, UniProt O14788 140-317, looked up)
chain: IRAEKAMVDGSWLDLAKRSKLEAQPFAHLTINATDIPSGSHKVSLSSWYHDRGWAKISNMTFSNGKLIVNQDGFYYLYANICFRHHETSGDLATEYLQLMVYVTKTSIKIPSSHTLMKGGSTKYWSGNSEFHFYSINVGGFFKLRSGEEISIEVSNPSLLDPDQDATYFGAFKVRDID
notes: source: bought: Peprotech

Assays:
[1] = Solubility with PEG3350 as co-solvent; format: physicochemical; details: PEG3350 2.5% v/v
From the text: PEG3350 was used as co-solvent in order to enhance inhibitors solubility and thus eliminate the possibility of aggregates formation. | column: Solubility (μM)

RANKL = molecular target: T1, RANKL; experiment: Fluorescence-based binding affinity assay, RANKL
Method: For use in the binding assays, recombinant TNF and RANKL were expressed and purified as previously described.[84–86] Fluorescence intensity was measure with a Synergy H1 Multi-Mode Reader (BioTek) in 96-well microplates (black) at 25°C. […] During preparation of the solutions the buffer was firstly added to all wells followed by the ligand solution and finally the protein was added. All solutions were mixed by pipetting and equilibrated for 1h at 25°C before measurement. […] Experiments were performed for TNF in 10 mM citrate-phosphate (pH 6.5) and for RANKL in 25 mM Tris–HCl buffer, 100 mM NaCl (pH 7.5); both buffers were supplemented with PEG3350 at the concentrations indicated in the respective figures. Kd values were calculated as mean ± SEM from three independent experiments.
Differences in fluorescence intensity between the protein/ligand complex and free protein (or free ligand) were analysed as previously described in [Papaneophytou et al. (2013) ACS Med Chem Lett. 4: 137-141] (Eq. S6) in order to determine the dissociation constant (Kd) of the various protein-ligand systems.
In Eq. (S6) Fobs is the observed fluorescence intensity; FBG is the fluorescence background signal; MFLF [picture] and PF are the molar fluorescence and concentration of free protein, respectively; FR is the fluorescence ratio of bound protein (or bound ligand in the case of a fluorescence ligand); LT and PT are the total concentrations of ligand and protein, respectively. A detailed analysis of the development of the fluorescence ligand-binding assay is given in [Papaneophytou et al. (2013) ACS Med Chem Lett. 4: 137-141].

L929 cells = system: L929 cells; set-up: method as in PMID 25160057; details: compound alone, read-out: L929 LC50; cited from earlier work
[2] = PEG3350 0% v/v; cited from earlier work
[3] = molecular target: the molecule itself; experiment: cross-linking; 100 ng recombinant human TNF or RANKL, with or without inhibitors (30 min, room temperature), cross-linked with 4.8 mM BS3 for 30 min at room temperature; SDS-PAGE and western blot

| Molecule | solubility [1] [µM] | Kd (RANKL; RANKL 0.5 μM, PEG3350 2.5%, 25 mM Tri-HCl, 100 mM NaCl pH 7.5, read-out: Binding affinity (Kd), RANKL) [µM] | Kd (RANKL; RANKL 0.5 μM, PEG3350 5%, 25 mM Tri-HCl, 100 mM NaCl pH 7.5, read-out: Binding affinity (Kd), RANKL) [µM] | Kd (RANKL; fluorescence assay, 25°C, 25 mM Tris-HCl, 100 mM NaCl, pH 7.5, 5% PEG3350, read-out: Kd (RANKL complexes)) [µM] | CC50 (L929 cells) [µM] | solubility [2] | stoichiometry N [3] |
| --- | --- | --- | --- | --- | --- | --- | --- |
| Cc1cc2occ(CN(C)CCN(C)Cc3cn(-c4cccc(C(F)(F)F)c4)c4ccccc34)c(=O)c2cc1C [SPD304, InChI = 1S/C32H32F3N3O2/c1-21-14-28-30(15-22(21)2)40-20-24(31(28)39)18-37(4)13-12-36(3)17-23-19-38(29-11-6-5-10-27(23)29)26-9-7-8-25(16–26)32(33,34)35/h5-11,14–16,19-20H,12–13,17-18H2,1-4H3, reference compound] | 71 (≈ 38.9 µg/mL) | 14.2 ± 0.68 | 13.8 ± 0.73 | 13.8 ± 0.7 | 7.5 ± 0.2 | 10^b μM | – |
| B1 | – | – | – | – | – | – | 3 |
